# Results reported in patent publication US8420630B2 (Boehringer Ingelheim Pharma GmbH & Co. KG, priority 2001, dated 2013).
# Where two headings read alike, the source gives them in different places.
# Biological target: T1, CDK1/cyclinB1 (Homo sapiens, UniProt P06493)
# T1 construct: made in house; host or cells: High Five insect cells (Trichoplusia ni), baculovirus coinfection
# Test: Cyclin B1-CDK1 kinase inhibition test
# Assay type: biochemical
# Experimental: CDK4) were cloned by standard methods using RT-PCR, and cloned into a transfer vector (cyclin in pAcG2T made by Pharmingen, CDKs in p2Bac made by Invitrogen) for the baculovirus system. […] After thawing the cells were resuspended in lysing buffer (50 mM HEPES pH 7.5, 10 mM MgCl2, 1 mM DTT, 5 μg/ml leupeptin, 5 μg/ml aprotinin, 100 μM NaF, 100 μM PMSF, 10 mM β-glycerolphosphate, 100 μM Na3VO4, 30 mM nitrophenylphosphate, 17.5 ml of lysing buffer per 10^8 cells) and incubated on ice for 30 min. […] Cyclin D1-CDK4 was purified by means of a GST-tag on cyclin D1 and then using glutathione beads (total protein about 0.2 mg/ml). All the kinase tests were carried out in 96-well microtitre plates (Greiner PS) in a final volume of 60 μl. […] As a negative control the kinase reaction was carried out in the absence of the substrate histone H1. As a positive control the kinase reaction was carried out in the absence of a test substance. As an internal control 30 μM and 300 μM (final concentration) of the kinase inhibitor olomoucin (Alexis) were used. […] The kinase reaction is started by the addition of 10 μl of ATP mix (0.045 mM ATP, 0.5 μCi ^33P-ATP in kinase buffer) and incubated for 30 min at 30° C. and 600 rpm in a shaking incubator. After incubation the plates were placed on ice and the proteins were precipitated by the addition of 125 μl of ice-cold 5% trichloroacetic acid. After 15 min on ice the precipitates were transferred onto Packard Unifilter 96 GF/B plates with the Packard Harvester System, and collected by vacuum filtration. The precipitates were washed 4 times with dist. H2O at ambient temperature. The filter plates were then dried at 60° C. and 50 μl of scintillation liquid were added to each well (Ultima Gold, Packard). The plate was sealed up with Sealing Tape and after 1 h measured in a scintillation measuring apparatus (Micro Beta made by Wallac).
# [1] = CDK1 tests (Example 13), recombinant cyclin B1/CDK1, substrate histone H1, read-out: CDK1/cyclinB1 IC50 value
# T1 sequence (P06493 whole entry): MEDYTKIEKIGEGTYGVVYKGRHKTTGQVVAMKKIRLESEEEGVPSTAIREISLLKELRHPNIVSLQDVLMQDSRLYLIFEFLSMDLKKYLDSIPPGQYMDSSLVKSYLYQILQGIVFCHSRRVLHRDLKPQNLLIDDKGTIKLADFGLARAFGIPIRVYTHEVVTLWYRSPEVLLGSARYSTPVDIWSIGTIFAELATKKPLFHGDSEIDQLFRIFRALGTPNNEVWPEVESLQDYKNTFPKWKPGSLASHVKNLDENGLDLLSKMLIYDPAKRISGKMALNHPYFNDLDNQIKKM
# T1 sequence (P14635 whole entry partner): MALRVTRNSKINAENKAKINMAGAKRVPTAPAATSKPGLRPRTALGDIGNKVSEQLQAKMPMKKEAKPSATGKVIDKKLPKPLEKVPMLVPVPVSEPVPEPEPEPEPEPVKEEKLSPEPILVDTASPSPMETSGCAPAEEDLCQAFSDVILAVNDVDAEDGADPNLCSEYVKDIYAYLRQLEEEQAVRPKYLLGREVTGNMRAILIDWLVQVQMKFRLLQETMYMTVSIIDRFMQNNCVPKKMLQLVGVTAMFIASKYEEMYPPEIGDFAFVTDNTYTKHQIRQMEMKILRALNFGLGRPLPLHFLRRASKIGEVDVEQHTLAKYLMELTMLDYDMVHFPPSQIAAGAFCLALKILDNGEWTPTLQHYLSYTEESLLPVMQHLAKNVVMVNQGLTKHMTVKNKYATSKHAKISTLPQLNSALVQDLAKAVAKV
SMILES,IC50 [1],IC50
"O=C1CCCN1CCCNc1nc(Nc2ccc3ccccc3c2)ncc1C(F)(F)F [Example 1(003), 2-(2-naphthylamino)-4-(3-(2-oxo-pyrrolidin-1-yl)-propyl-1-amino)-5-trifluoromethyl-pyrimidine]",< 100 nM,
"FC(F)(F)c1cnc(Nc2ccc(Cl)cc2)nc1N1CCc2[nH]cnc2C1 [Example 1(004), 2-(4-chlorophenylamino)-4-(1,4,6,7-tetrahydro-imidazo[4,5-c]pyridin-5-yl)-5-trifluoromethyl-pyrimidine]",< 100 nM,
"FC(F)(F)c1cnc(Nc2cccc(Cl)c2)nc1N1CCc2[nH]cnc2C1 [Example 1(005), 2-(3-chlorophenylamino)-4-(1,4,6,7-tetrahydro-imidazo[4,5-c]pyridin-5-yl)-5-trifluoromethyl-pyrimidine]",< 100 nM,
"NS(=O)(=O)c1ccc(Nc2ncc([N+](=O)[O-])c(NCCCN3CCCC3=O)n2)cc1 [Example 1(008), 2-(4-aminosulphonyl-phenylamino)-4-(3-(2-oxo-pyrrolidin-1-yl)-propyl-1-amino)-5-nitro-pyrimidine]",< 100 nM,
"FC(F)(F)c1cnc(Nc2ccc(Cl)c(Cl)c2)nc1NCCCN1CC2C=CC1C2 (stereo not drawn) [Example 1(009), 2-(3,4-dichlorophenylamino)-4-(3-(2-aza-bicyclo[2.2.1]hept-5-en-2-yl)-propylamino)-5-trifluoro-methyl-pyrimidine]",< 100 nM,
"O=[N+]([O-])c1cnc(Nc2ccc(Cl)cc2)nc1N1CCc2[nH]cnc2C1 [Example 1(010), 2-(4-chlorophenylamino)-4-(1,4,6,7-tetrahydro-imidazo[4,5-c]pyridin-5-yl)-5-nitro-pyrimidine]",< 100 nM,
"O=C1CCCN1CCCNc1nc(Nc2ccc(Cl)cc2)ncc1C(F)(F)F [Example 1(011), 2-(4-chlorophenylamino)-4-(3-(2-oxo-pyrrolidin-1-yl)-propyl-1-amino)-5-trifluoromethyl-pyrimidine]",< 100 nM,
"NCCCNc1nc(Nc2cccc(Cl)c2)ncc1C(F)(F)F [Example 1(012), 2-(3-chlorophenylamino)-4-(3-aminopropyl-amino)-5-trifluoromethyl-pyrimidine]",< 100 nM,
"FC(F)(F)c1cnc(Nc2cc(Cl)cc(Cl)c2)nc1N1CCc2[nH]cnc2C1 [Example 1(014), 2-(3,5-dichlorophenylamino)-4-(1,4,6,7-tetrahydro-imidazo[4,5-c]pyridin-5-yl)-5-trifluoromethyl-pyrimidine]",< 100 nM,
"O=[N+]([O-])c1cnc(Nc2ccc(F)c(Cl)c2)nc1N1CCc2[nH]cnc2C1 [Example 1(015), 2-(3-chloro-4-fluoro-phenylamino)-4-(1,4,6,7-tetrahydro-imidazo[4,5-c]pyridin-5-yl)-5-nitro-pyrimidine]",< 100 nM,
"O=[N+]([O-])c1ccccc1CNc1nc(Nc2ccc(Cl)c(Cl)c2)ncc1C(F)(F)F [Example 1(016), 2-(3,4-dichloro-phenylamino)-4-(2-nitrobenzylamino)-5-trifluoromethyl-pyrimidine]",< 100 nM,
"O=C(O)c1ccc(Nc2ncc(C(F)(F)F)c(N3CCc4[nH]cnc4C3)n2)cc1 [Example 1(017), 2-(4-carboxy-phenylamino)-4-(1,4,6,7-tetrahydro-imidazo[4,5-c]pyridin-5-yl)-5-trifluoromethyl-pyrimidine]",< 100 nM,
"CN(C)[C@H]1CC[C@H](Nc2nc(Nc3ccc(C(=O)O)cc3)ncc2[N+](=O)[O-])CC1 [Example 1(018), 2-(4-carboxy-phenylamino)-4-(trans-4-dimethylamino-cyclohexylamino)-5-nitro-pyrimidine]",< 100 nM,
"FC(F)(F)c1cnc(Nc2ccc(Br)cc2)nc1N1CCc2[nH]cnc2C1 [Example 1(019), 2-(4-bromo-phenylamino)-4-(1,4,6,7-tetrahydro-imidazo[4,5-c]pyridin-5-yl)-5-trifluoromethyl-pyrimidine]",< 100 nM,
"NC1CCCC(Nc2nc(Nc3cc(Cl)cc(Cl)c3)ncc2C(F)(F)F)C1 (stereo not drawn) [Example 1(020), 2-(3,5-dichloro-phenylamino)-4-(3-amino-cyclohexylamino)-5-trifluoromethyl-pyrimidine]",< 100 nM,
"O=C(O)c1ccc(Nc2ncc(C(F)(F)F)c(NCCCN3CCCC3=O)n2)cc1 [Example 1(021), 2-(4-carboxy-phenylamino)-4-(3-(2-oxo-pyrrolidin-1-yl)-propyl-1-amino)-5-trifluoromethyl-pyrimidine]",< 100 nM,
"NC(=O)c1cccc(Nc2ncc([N+](=O)[O-])c(N3CCc4[nH]cnc4C3)n2)c1 [Example 1(022), 2-(3-aminocarbonyl-phenylamino)-4-(1,4,6,7-tetrahydro-imidazo[4,5-c]pyridin-5-yl)-5-nitro-pyrimidine]",< 100 nM,

SMILES,IC50 [1],IC50
"O=C(O)CCc1ccc(Nc2ncc(C(F)(F)F)c(N3CCc4[nH]cnc4C3)n2)cc1 [Example 1(023), 2-(4-(2-carboxy-1-ethyl-)phenylamino)-4-(1,4,6,7-tetrahydro-imidazo[4,5-c]pyridin-5-yl)-5-trifluoromethyl-pyrimidine]",< 100 nM,
"NCCCNc1nc(Nc2cccc(Br)c2)ncc1C(F)(F)F [Example 1(024), 2-(3-bromo-phenylamino)-4-(3-amino-propylamino)-5-trifluoromethyl-pyrimidine]",< 100 nM,
"NC(=O)CCNc1nc(Nc2ccc(Cl)c(Cl)c2)ncc1C(F)(F)F [Example 1(025), 2-(3,4-dichloro-phenylamino)-4-(2-aminocarbonyl-1-ethylamino)-5-trifluoromethyl-pyrimidine]",< 100 nM,
"O=C(Nc1ccccc1)c1ccc(Nc2ncc([N+](=O)[O-])c(N3CCc4[nH]cnc4C3)n2)cc1 [Example 1(026), 2-(4-phenylaminocarbonyl-phenylamino)-4-(1,4,6,7-tetrahydro-imidazo[4,5-c]pyridin-5-yl)-5-nitro-pyrimidine]",< 100 nM,
"O=[N+]([O-])c1ccc(Nc2ncc([N+](=O)[O-])c(N3CCc4[nH]cnc4C3)n2)cc1 [Example 1(027), 2-(4-nitro-phenylamino)-4-(1,4,6,7-tetrahydro-imidazo[4,5-c]pyridin-5-yl)-5-nitro-pyrimidine]",< 100 nM,
"O=[N+]([O-])c1cnc(Nc2ccc(Cl)cc2)nc1N1CCCC(CCCCN2CCCC2)C1 (stereo not drawn) [Example 1(028), 2-(4-chloro-phenylamino)-4-(3-(4-(pyrrolidin-1-yl)butyl)-piperidin-1-yl)-5-nitro-pyrimidine]",< 100 nM,
"O=C(O)c1ccc(Nc2ncc([N+](=O)[O-])c(N3CCc4[nH]cnc4C3)n2)cc1 [Example 1(029), 2-(4-carboxy-phenylamino)-4-(1,4,6,7-tetrahydro-imidazo[4,5-c]pyridin-5-yl)-5-nitro-pyrimidine]",< 100 nM,
CN1CCC(CNc2nc(Nc3ccc(Cl)c(Cl)c3)ncc2C(F)(F)F)CC1 [Example 1(030)],,< 100 nM
"O=C1CCCN1CCCNc1nc(Nc2ccccc2)ncc1C(F)(F)F [Example 1(031), 2-phenylamino-4-(3-(2-oxo-pyrrolidin-1-yl)-propyl-1-amino)-5-trifluoromethyl-pyrimidine]",< 100 nM,
"N#Cc1ccc(Nc2ncc([N+](=O)[O-])c(N3CCc4[nH]cnc4C3)n2)cc1 [Example 1(032), 2-(4-cyano-phenylamino)-4-(1,4,6,7-tetrahydro-imidazo[4,5-c]pyridin-5-yl)-5-nitro-pyrimidine]",< 100 nM,
"NCC1CCC(CNc2nc(Nc3ccccc3)ncc2C(F)(F)F)CC1 (stereo not drawn) [Example 1(033), 2-phenylamino-4-(4-aminomethyl-cyclohexylmethylamino)-5-trifluoromethyl-pyrimidine]",< 100 nM,
"NC1CCCC(Nc2nc(Nc3ccc(Cl)cc3)ncc2[N+](=O)[O-])C1 (stereo not drawn) [Example 1(034), 2-(4-chloro-phenylamino)-4-(3-amino-cyclohexylamino)-5-nitro-pyrimidine]",< 100 nM,
"NCCCNc1nc(Nc2ccc(Cl)c(Cl)c2)ncc1C(F)(F)F [Example 1(035), 2-(3,4-dichloro-phenylamino)-4-(3-amino-propylamino)-5-trifluoromethyl-pyrimidine]",< 100 nM,
"O[C@H]1CC[C@@H](Nc2nc(Nc3ccc(Cl)c(Cl)c3)ncc2C(F)(F)F)CC1 [Example 1(037), 2-(3,4-dichloro-phenylamino)-4-(cis-4-hydroxy-cyclohexylamino)-5-trifluoromethyl-pyrimidine]",< 100 nM,
"FC(F)(F)c1cnc(Nc2cccc(Br)c2)nc1N1CCc2[nH]cnc2C1 [Example 1(038), 2-(3-bromo-phenylamino)-4-(1,4,6,7-tetrahydro-imidazo[4,5-c]pyridin-5-yl)-5-trifluoromethyl-pyrimidine]",< 100 nM,
"NC1CCCC(Nc2nc(Nc3ccc4ccccc4c3)ncc2C(F)(F)F)C1 (stereo not drawn) [Example 1(039), 2-(2-naphthylamino)-4-(3-amino-cyclohexylamino)-5-trifluoromethyl-pyrimidine]",< 100 nM,
